# Laboratory results as given in US11155573B2, “Bile salt hydrolase probe and method of making and using the same” (Battelle Memorial Institute, priority 2017, dated 2021).
# Columns and labels:
# [1] = system: endogenously expressed BSH in L. plantarum lysate; test: Lactobacillus plantarum lysate assay; assay type: biochemical; conditions: CAPE 2 mM
# Experimental: Reaction volumes of 100 μL were used in Microfluor1 black flat bottom microtiter 96 well plates (Thermo Scientific). […] A 50 μL solution of probe (300 μM) in buffer with 5% DMSO was then added to initiate the reaction. Reactions were immediately placed in a plate reader (SPECTRAmax Gemini XS) pre-warmed to 37° C., and reaction progress was monitored at 450 nm (excitation 350 nm) for 20 minutes.
# [2] = system: L. plantarum cells; test: Whole-cell Lactobacillus plantarum assay; assay type: cell-based; conditions: varying amount of CAPE
# Experimental: A starter culture was created by inoculation of 5 ml MRS broth from a L. plantarum colony grown on MRS agar. The starter culture was incubated overnight at 37° C. overnight. The 5 ml starter culture was then added to 95 ml fresh MRS broth and grown until the optical density at 600 nm reached 0.7. At that point, the cells were pelleted via centrifugation. The cell pellet was resuspended in 15 ml PBS, and centrifuged. The cells were additionally washed with PBS and pelleted once more. The resulting pellet was suspended in 380 μl PBS. The cell suspension was then serially diluted two-fold. […]
# [3] = system: purified BSH; test: GCA and iodoacetamide competition assay; assay type: biochemical; conditions: CA-AMCA 150 μM, BSH 10 μg/ml
# [4] = target: T1, purified recombinant Lactobacillus plantarum BSH (Lactiplantibacillus plantarum, UniProt Q06115); test: BA-ABP labeling of purified BSH; assay type: binding
# T1 sequence (Q06115 1-324): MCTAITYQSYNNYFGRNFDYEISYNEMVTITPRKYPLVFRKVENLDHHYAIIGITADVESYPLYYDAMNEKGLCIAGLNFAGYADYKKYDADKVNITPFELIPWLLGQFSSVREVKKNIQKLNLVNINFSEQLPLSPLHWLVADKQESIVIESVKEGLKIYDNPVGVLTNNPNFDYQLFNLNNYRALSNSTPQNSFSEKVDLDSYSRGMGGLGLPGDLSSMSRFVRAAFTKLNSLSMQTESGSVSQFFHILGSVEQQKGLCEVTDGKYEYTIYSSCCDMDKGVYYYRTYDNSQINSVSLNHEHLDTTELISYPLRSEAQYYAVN
# Experimental: Binding of BA-ABP to purified recombinant Lactobacillus plantarum BSH was assessed through incubation with probe in buffer (FIG. 18A). […] Additionally, labeling was time-dependent.
# [5] = system: purified BSH; conditions: read-out: Michaelis-Menten constant (Km); turnover by purified BSH, 0.1 M sodium phosphate pH 6, 37° C.
# Experimental: Reaction volumes of 100 μL were used in Microfluor1 black flat bottom microtiter 96 well plates (Thermo Scientific). 50 μL of enzyme (40 μg/ml) in buffer (0.1 M sodium phosphate, pH=6) was added to each well. […] Reactions were immediately placed in a plate reader (SPECTRAmax Gemini XS) pre-warmed to 37° C., and reaction progress was monitored at 450 nm (excitation 350 nm) for 20 minutes. Reactions had final concentrations of 20 μg/ml enzyme, 0.1 M sodium phosphate (pH 6), and 2.5% DMSO.
# The initial rate data was used for determination of Km values. For Km determination, the kinetic values were obtained directly from nonlinear regression of substrate-velocity curves in the presence of varying concentrations of BA-AMCA. The equation Y=(Vmax*X)/(Km+X*(1+X/Ki)), X=substrate concentration (μM) and Y=enzyme velocity (RFU/s); was used in the nonlinear regression. Each BA-AMCA Km value was determined using at least three independent experiments.
# [6] = system: BSH; test: Probe labeling of endogenous BSH in L. plantarum lysate; assay type: binding, Lactobacillus plantarum
# Experimental: (§1) The BSH probes were then assayed for retention of function in the presence of a complex cell lysate. Purified BSH was added to an organism that is not known to endogenously express BSH to precisely control this variable. […] After confirming that the BSH-ABP is capable of labeling BSH in complex biological mixtures, application of the probe was assayed for detection of endogenous BSH. L. plantarum was used because its expression of BSH is well-documented, and this organism is found in many popular over-the-counter probiotic formulations for support of healthy cholesterol levels.
# [7] = target: T2, BSH (Lactiplantibacillus plantarum, UniProt Q06115); test: BA-ABP labeling of purified BSH added to Escherichia coli bacterial lysate; assay type: binding
# T2 sequence (Q06115 1-324): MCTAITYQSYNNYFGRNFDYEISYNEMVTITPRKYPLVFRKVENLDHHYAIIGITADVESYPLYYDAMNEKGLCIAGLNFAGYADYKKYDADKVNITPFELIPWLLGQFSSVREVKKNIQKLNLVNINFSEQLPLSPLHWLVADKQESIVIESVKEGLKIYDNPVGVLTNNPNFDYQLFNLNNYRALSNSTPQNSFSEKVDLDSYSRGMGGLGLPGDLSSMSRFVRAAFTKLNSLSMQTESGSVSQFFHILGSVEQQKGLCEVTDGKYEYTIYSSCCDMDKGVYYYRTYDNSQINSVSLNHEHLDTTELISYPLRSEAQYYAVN
# Experimental: as §1
# [8] = system: human gut microbiome lysate; test: BSH ABP labeling in human gut microbiome lysate; assay type: binding
# Experimental: The probes were assayed for activity in human gut microbiome extracts.
# [9] = system: BSH; test: In vivo probe labeling in L. plantarum; assay type: cell-based, Lactobacillus plantarum
# Experimental: as §1
# [10] = substrate: Cc1c(CC(=O)O)c(=O)oc2cc(NC(=O)CC[C@@H](C)[C@H]3CC[C@H]4C5[C@H](O)C[C@@H]6C[C@H](O)CC[C@]6(C)[C@H]5C[C@H](O)[C@]34C)ccc12; test: purified protein, by the assay type; assay type: biochemical; conditions: other: individual replicate, purified BSH 20 μg/ml, 0.1 M sodium phosphate pH 6, 2.5% DMSO, 37° C., 20 min, Ex 350/Em 450 nm
# Text: Fluorescent signals for substrate turnover could be detected with as low as mid-nanomolar enzyme concentrations, which is considerably less enzyme when compared to micromolar concentrations required for conventional ninhydrin assays with purified BSH. […] Furthermore, robust signals could be reliably observed in the low micromolar substrate concentration range before any indication of substrate inhibition. Product formation was additionally confirmed through coupling of the BSH reaction to a secondary HPLC-based assay.
molecule,measurement,setting,value
"O=C(/C=C/c1ccc(O)c(O)c1)OCCc1ccccc1 [CAPE, caffeic acid phenethyl ester]",effect on CA-AMCA turnover in L. plantarum lysate,[1],Activity was not observed
same,effect on probe velocities in whole-cell suspension,[2],probe velocities were consistent with the amount of CAPE added
"NC(=O)CI [iodoacetamide, reference compound]",effect on CA-AMCA turnover by BSH,[3]; IAA 12 mM,completely ablated substrate turnover
same,effect of pre-treatment on BA-ABP binding to BSH,[4]; pre-treatment before probe,Binding was ablated
Cc1c(CC(=O)O)c(=O)oc2cc(NC(=O)CC[C@@H](C)[C@H]3CC[C@H]4C5[C@H](O)C[C@@H]6C[C@H](O)CC[C@]6(C)[C@H]5C[C@H](O)[C@]34C)ccc12 (stereo partly drawn) [CA-AMCA],Km,[5],26 µM
C[C@H](CCC(=O)NCC(=O)O)[C@H]1CC[C@H]2[C@@H]3[C@H](O)C[C@@H]4C[C@H](O)CC[C@]4(C)[C@H]3C[C@H](O)[C@]12C [glycocholic acid],effect on CA-AMCA turnover by BSH,[3]; GCA 10 mM,Attenuated activity
C#CCNC(=O)C=CCC[C@@H](C)[C@H]1CC[C@H]2C3[C@H](O)C[C@@H]4C[C@H](O)CC[C@]4(C)[C@H]3C[C@H](O)[C@]12C (stereo partly drawn) [BA-ABP],fluorescence imaging of labeling in L. plantarum lysate,[6],"a band consistent with BSH, along with several others"
same,"fluorescent gel labeling, BSH added to lysate of organism not expressing BSH",[7],"a fluorescent band that is consistent with BSH labeling, along with several other unknown targets"
same,labeling in gut microbiome lysate,[8],labeling was observed
same,labeling in vivo in L. plantarum,[9],Labeling in vivo was also confirmed
same,"labeling of purified BSH, time dependence",[4],time-dependent
same,labeling of purified BSH upon addition of free bile salts,[4]; competition with native substrate,could be attenuated
same,"labeling of purified BSH, dose dependence",[4]; incubation with probe in buffer,dose-dependent
"bile salt hydrolase (BSH), purified (Lactiplantibacillus plantarum WCFS1) (protein) MCTAITYQSYNNYFGRNFDYEISYNEMVTITPRKYPLVFRKVENLDHHYAIIGITADVESYPLYYDAMNEKGLCIAGLNFAGYADYKKYDADKVNITPFELIPWLLGQFSSVREVKKNIQKLNLVNINFSEQLPLSPLHWLVADKQESIVIESVKEGLKIYDNPVGVLTNNPNFDYQLFNLNNYRALSNSTPQNSFSEKVDLDSYSRGMGGLGLPGDLSSMSRFVRAAFTKLNSLSMQTESGSVSQFFHILGSVEQQKGLCEVTDGKYEYTIYSSCCDMDKGVYYYRTYDNSQINSVSLNHEHLDTTELISYPLRSEAQYYAVN",Km,[10]; FIG. 8B,31.48 µM
same,Km,[10]; FIG. 8C,22.57 µM
